{
  "source": "PubChem BioAssay AID1788",
  "about": "(Vanderbilt High Throughput Screening Facility, 2009)",
  "assay_in_all_cases": "PubChem AID 1788",
  "key": {"[1]": {"system": "Calcium channel N-type (rat)", "conditions": "MDS Pharma lead profiling panel, radioligand binding, at 10 µM, active compounds read high"}, "[2]": {"system": "Glutamate Kainate (rat)", "conditions": "MDS Pharma lead profiling panel, radioligand binding, at 10 µM, active compounds read high"}, "[3]": {"system": "Adrenergic a1B (rat)", "conditions": "MDS Pharma lead profiling panel, radioligand binding, at 10 µM, active compounds read high"}, "[4]": {"system": "Dopamine D4.2 (human)", "conditions": "MDS Pharma lead profiling panel, radioligand binding, at 10 µM, active compounds read high"}, "[5]": {"system": "Sodium Channel, Site 2 (rat)", "conditions": "MDS Pharma lead profiling panel, radioligand binding, at 10 µM, active compounds read high"}, "[6]": {"system": "Endothelin ETA (human)", "conditions": "MDS Pharma lead profiling panel, radioligand binding, at 10 µM, active compounds read high"}, "[7]": {"molecular_target": "Kappa-type opioid receptor (Homo sapiens) (UniProt P41145)", "sequence (P41145 whole entry, looked up)": "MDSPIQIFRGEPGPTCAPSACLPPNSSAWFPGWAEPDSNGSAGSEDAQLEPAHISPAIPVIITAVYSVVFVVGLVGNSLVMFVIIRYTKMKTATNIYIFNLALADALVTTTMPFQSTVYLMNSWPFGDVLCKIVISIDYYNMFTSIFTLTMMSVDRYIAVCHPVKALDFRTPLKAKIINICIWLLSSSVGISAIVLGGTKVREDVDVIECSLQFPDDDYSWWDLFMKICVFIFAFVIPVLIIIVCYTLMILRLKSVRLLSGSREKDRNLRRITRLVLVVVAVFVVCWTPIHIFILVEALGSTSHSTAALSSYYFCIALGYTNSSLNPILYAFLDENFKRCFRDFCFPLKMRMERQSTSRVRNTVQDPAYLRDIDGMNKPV", "conditions": "MDS Pharma lead profiling panel, radioligand binding; Opiate k (OP2, KOP) (human); at 10 µM; active compounds read high"}, "[8]": {"system": "Transporter, Serotonin (5-Hydroxytryptamine) (SERT) (human)", "conditions": "MDS Pharma lead profiling panel, radioligand binding, at 10 µM, active compounds read high"}, "[9]": {"system": "Adrenergic b1 (human)", "conditions": "MDS Pharma lead profiling panel, radioligand binding, at 10 µM, active compounds read high"}, "[10]": {"system": "Leukotriene Cysteinyl CysLT1 (human)", "conditions": "MDS Pharma lead profiling panel, radioligand binding, at 10 µM, active compounds read high"}, "[11]": {"system": "Bradykinin B2 (human)", "conditions": "MDS Pharma lead profiling panel, radioligand binding, at 10 µM, active compounds read high"}, "[12]": {"molecular_target": "Potassium Channel K ATP (hamster) (UniProt P49658)", "sequence (P49658 whole entry, looked up)": "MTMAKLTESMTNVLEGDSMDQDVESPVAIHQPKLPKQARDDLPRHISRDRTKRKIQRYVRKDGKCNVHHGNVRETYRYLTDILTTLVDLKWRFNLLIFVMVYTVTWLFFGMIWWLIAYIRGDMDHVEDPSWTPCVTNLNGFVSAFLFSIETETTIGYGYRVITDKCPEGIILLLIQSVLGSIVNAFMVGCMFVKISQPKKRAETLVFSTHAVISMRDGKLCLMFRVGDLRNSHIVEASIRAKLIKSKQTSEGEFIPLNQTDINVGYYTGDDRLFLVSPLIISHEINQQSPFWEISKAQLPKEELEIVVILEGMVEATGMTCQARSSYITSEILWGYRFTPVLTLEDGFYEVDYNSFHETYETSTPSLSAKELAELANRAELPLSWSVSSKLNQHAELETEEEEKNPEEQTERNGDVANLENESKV", "conditions": "MDS Pharma lead profiling panel, radioligand binding, at 10 µM, active compounds read high"}, "[13]": {"system": "Adenosine A1 (human)", "conditions": "MDS Pharma lead profiling panel, radioligand binding, at 10 µM, active compounds read high"}, "[14]": {"molecular_target": "Alpha-2A adrenergic receptor (Homo sapiens) (UniProt P08913)", "sequence (P08913 whole entry, looked up)": "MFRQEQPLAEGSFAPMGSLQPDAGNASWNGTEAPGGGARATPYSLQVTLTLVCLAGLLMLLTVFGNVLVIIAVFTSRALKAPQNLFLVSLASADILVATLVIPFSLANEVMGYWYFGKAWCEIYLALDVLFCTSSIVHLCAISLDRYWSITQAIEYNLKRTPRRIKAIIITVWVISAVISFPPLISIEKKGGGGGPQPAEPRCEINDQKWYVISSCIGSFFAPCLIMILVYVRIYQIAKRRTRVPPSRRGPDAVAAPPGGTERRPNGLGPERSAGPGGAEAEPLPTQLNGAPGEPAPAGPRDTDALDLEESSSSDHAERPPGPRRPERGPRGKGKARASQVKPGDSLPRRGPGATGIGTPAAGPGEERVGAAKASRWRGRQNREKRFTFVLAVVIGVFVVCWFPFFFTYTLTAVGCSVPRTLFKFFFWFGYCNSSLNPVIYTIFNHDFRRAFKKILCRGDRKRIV", "conditions": "MDS Pharma lead profiling panel, radioligand binding; Adrenergic a2A (human); at 10 µM; active compounds read high"}, "[15]": {"system": "Bradykinin B1 (human)", "conditions": "MDS Pharma lead profiling panel, radioligand binding, at 10 µM, active compounds read high"}, "[16]": {"system": "Melatonin MT1 (human)", "conditions": "MDS Pharma lead profiling panel, radioligand binding, at 10 µM, active compounds read high"}, "[17]": {"molecular_target": "Muscarinic acetylcholine receptor M1 (Homo sapiens) (UniProt P11229)", "sequence (P11229 whole entry, looked up)": "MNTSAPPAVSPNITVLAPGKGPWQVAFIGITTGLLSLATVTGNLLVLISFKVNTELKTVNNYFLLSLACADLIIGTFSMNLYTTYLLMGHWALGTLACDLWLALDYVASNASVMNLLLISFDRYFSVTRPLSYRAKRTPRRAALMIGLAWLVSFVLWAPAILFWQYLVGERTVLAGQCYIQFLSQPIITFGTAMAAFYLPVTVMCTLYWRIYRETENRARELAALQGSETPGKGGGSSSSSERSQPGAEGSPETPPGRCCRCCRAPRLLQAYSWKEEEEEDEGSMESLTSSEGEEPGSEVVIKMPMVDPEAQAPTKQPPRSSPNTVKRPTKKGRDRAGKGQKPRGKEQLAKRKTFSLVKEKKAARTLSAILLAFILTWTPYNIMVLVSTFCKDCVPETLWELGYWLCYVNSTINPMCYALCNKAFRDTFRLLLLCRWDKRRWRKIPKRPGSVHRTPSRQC", "conditions": "MDS Pharma lead profiling panel, radioligand binding, at 10 µM, active compounds read high"}, "[18]": {"molecular_target": "Beta-2 adrenergic receptor (Homo sapiens) (UniProt P07550)", "sequence (P07550 whole entry, looked up)": "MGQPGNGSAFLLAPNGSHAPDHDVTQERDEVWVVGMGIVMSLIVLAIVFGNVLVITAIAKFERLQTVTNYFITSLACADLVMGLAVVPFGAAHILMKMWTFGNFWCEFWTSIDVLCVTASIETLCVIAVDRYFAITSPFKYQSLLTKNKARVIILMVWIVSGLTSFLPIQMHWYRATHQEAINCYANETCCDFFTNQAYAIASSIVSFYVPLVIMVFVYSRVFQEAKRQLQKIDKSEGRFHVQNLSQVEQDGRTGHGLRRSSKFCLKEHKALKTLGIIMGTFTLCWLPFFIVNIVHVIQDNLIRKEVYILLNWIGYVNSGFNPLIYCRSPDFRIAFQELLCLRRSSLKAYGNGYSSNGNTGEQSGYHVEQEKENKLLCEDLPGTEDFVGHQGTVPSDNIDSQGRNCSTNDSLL", "conditions": "MDS Pharma lead profiling panel, radioligand binding; Adrenergic b2 (human); at 10 µM; active compounds read high"}, "[19]": {"system": "Calcium channel L-type (rat)", "conditions": "MDS Pharma lead profiling panel, radioligand binding, dihydropyridine site, at 10 µM, active compounds read high"}, "[20]": {"system": "Tachykinin NK1 (human)", "conditions": "MDS Pharma lead profiling panel, radioligand binding, at 10 µM, active compounds read high"}, "[21]": {"molecular_target": "Glucocorticoid receptor (Homo sapiens) (UniProt P04150)", "sequence (P04150 whole entry, looked up)": "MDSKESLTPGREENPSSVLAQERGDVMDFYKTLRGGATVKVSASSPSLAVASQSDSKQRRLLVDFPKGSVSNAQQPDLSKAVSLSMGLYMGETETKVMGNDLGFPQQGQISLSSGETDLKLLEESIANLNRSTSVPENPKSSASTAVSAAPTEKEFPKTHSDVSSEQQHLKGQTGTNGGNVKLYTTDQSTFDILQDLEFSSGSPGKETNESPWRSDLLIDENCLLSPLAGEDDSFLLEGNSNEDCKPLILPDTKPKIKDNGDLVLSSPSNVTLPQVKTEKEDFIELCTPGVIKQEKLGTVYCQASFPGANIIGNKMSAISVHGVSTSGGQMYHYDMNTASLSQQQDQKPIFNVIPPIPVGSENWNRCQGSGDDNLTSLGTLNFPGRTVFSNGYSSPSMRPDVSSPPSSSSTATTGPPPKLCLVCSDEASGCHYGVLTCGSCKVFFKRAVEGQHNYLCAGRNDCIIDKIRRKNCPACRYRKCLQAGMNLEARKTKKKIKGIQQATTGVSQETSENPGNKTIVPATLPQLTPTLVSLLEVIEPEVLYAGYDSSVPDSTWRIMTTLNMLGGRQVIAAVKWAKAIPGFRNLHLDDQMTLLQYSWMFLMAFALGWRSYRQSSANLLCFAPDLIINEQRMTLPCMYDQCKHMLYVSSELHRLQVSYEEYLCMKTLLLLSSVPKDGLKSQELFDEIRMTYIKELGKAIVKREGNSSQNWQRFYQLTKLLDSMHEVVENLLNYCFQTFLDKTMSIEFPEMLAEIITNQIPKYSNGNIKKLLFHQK", "conditions": "MDS Pharma lead profiling panel, radioligand binding, at 10 µM, active compounds read high"}, "[22]": {"molecular_target": "Estrogen receptor (Homo sapiens) (UniProt P03372)", "sequence (P03372 whole entry, looked up)": "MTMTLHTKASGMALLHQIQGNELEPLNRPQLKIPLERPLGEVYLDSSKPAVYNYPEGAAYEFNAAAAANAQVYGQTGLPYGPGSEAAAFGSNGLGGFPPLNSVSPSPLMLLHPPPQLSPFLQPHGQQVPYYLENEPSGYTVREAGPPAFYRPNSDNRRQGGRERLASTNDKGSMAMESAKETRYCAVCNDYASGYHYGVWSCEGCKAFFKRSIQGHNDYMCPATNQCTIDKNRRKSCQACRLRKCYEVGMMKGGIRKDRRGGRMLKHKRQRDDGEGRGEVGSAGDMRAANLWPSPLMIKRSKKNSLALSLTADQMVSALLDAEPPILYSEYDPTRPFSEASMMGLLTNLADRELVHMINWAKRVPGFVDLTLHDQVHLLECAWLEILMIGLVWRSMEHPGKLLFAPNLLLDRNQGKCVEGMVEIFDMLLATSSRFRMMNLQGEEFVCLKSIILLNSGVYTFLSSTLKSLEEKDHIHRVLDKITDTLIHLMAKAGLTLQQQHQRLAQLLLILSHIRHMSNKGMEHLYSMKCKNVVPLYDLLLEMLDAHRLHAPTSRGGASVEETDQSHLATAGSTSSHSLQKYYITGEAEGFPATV", "conditions": "MDS Pharma lead profiling panel, radioligand binding; Estrogen ER a (human); at 10 µM; active compounds read high"}, "[23]": {"molecular_target": "D(1A) dopamine receptor (Homo sapiens) (UniProt P21728)", "sequence (P21728 whole entry, looked up)": "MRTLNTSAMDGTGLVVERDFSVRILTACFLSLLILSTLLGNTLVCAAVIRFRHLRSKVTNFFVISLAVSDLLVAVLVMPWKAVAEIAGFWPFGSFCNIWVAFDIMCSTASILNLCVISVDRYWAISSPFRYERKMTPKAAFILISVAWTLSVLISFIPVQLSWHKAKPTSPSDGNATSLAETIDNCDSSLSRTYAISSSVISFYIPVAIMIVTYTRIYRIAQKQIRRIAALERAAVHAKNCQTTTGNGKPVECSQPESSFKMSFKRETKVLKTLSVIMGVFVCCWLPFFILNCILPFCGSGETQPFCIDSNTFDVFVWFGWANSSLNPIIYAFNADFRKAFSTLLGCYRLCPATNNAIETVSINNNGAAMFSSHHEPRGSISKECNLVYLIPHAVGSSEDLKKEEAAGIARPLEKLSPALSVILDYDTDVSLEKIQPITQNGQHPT", "conditions": "MDS Pharma lead profiling panel, radioligand binding; Dopamine D1 (human); at 10 µM; active compounds read high"}, "[24]": {"system": "G protein-coupled receptor GPR103 (human)", "conditions": "MDS Pharma lead profiling panel, radioligand binding, at 10 µM, active compounds read high"}, "[25]": {"system": "Sigma s1 (human)", "conditions": "MDS Pharma lead profiling panel, radioligand binding, at 10 µM, active compounds read high"}, "[26]": {"molecular_target": "Neuropeptide Y receptor type 1 (Homo sapiens) (UniProt P25929)", "sequence (P25929 whole entry, looked up)": "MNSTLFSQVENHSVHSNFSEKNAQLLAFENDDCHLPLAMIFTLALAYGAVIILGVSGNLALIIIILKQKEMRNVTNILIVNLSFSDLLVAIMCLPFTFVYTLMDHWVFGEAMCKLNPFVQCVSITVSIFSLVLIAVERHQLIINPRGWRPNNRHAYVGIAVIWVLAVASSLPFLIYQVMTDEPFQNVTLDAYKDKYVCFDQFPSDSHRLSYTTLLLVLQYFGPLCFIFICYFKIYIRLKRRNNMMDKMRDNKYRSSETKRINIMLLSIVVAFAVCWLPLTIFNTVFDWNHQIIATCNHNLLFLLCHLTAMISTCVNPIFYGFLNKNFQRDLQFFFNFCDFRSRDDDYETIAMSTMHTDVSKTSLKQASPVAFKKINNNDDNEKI", "conditions": "MDS Pharma lead profiling panel, radioligand binding; Neuropeptide Y Y1 (human); at 10 µM; active compounds read high"}, "[27]": {"molecular_target": "5-hydroxytryptamine receptor 1A (Homo sapiens) (UniProt P08908)", "sequence (P08908 whole entry, looked up)": "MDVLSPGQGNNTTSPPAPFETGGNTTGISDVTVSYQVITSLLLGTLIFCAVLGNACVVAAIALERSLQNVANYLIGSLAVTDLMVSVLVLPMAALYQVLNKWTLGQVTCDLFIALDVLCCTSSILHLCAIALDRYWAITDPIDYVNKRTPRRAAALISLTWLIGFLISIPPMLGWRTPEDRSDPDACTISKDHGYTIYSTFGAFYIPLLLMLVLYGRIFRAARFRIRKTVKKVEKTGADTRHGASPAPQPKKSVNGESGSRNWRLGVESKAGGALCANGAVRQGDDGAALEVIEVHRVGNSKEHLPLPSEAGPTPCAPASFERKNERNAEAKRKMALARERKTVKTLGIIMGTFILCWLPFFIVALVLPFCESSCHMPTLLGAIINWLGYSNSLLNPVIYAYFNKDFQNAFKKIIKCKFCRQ", "conditions": "MDS Pharma lead profiling panel, radioligand binding; Serotonin (5-Hydroxytryptamine) 5-HT1A (human); at 10 µM; active compounds read high"}, "[28]": {"system": "Sigma s2 (rat)", "conditions": "MDS Pharma lead profiling panel, radioligand binding, at 10 µM, active compounds read high"}, "[29]": {"system": "Purinergic P2Y (rat)", "conditions": "MDS Pharma lead profiling panel, radioligand binding, at 10 µM, active compounds read high"}, "[30]": {"system": "Adenosine A3 (human)", "conditions": "MDS Pharma lead profiling panel, radioligand binding, at 10 µM, active compounds read high"}, "[31]": {"system": "Prostanoid EP4 (human)", "conditions": "MDS Pharma lead profiling panel, radioligand binding, at 10 µM, active compounds read high"}, "[32]": {"system": "Transporter, Dopamine (DAT) (human)", "conditions": "MDS Pharma lead profiling panel, radioligand binding, at 10 µM, active compounds read high"}, "[33]": {"system": "Adrenergic a1A (rat)", "conditions": "MDS Pharma lead profiling panel, radioligand binding, at 10 µM, active compounds read high"}},
  "note": "Calls of active or inactive are those of the source. How the calls were made is not given here.",
  "data": [
    {"smiles": "CCOC(=O)N1CCC(NCCNC(=O)c2ccccc2C)CC1", "values": [
      {"measurement": "inhibition", "setting": "[1]", "result": "8% (inactive)"},
      {"measurement": "inhibition", "setting": "[2]", "result": "9% (inactive)"},
      {"measurement": "inhibition", "setting": "[3]", "result": "20% (inactive)"},
      {"measurement": "inhibition", "setting": "[4]", "result": "52% (inactive)"},
      {"measurement": "inhibition", "setting": "[5]", "result": "-7% (inactive)"},
      {"measurement": "inhibition", "setting": "[6]", "result": "8% (inactive)"},
      {"measurement": "inhibition", "setting": "[7]", "result": "-2% (inactive)"},
      {"measurement": "inhibition", "setting": "[8]", "result": "-5% (inactive)"},
      {"measurement": "inhibition", "setting": "[9]", "result": "4% (inactive)"},
      {"measurement": "inhibition", "setting": "[10]", "result": "5% (inactive)"},
      {"measurement": "inhibition", "setting": "[11]", "result": "9% (inactive)"},
      {"measurement": "inhibition", "setting": "[12]", "result": "-9% (inactive)"},
      {"measurement": "inhibition", "setting": "[13]", "result": "-4% (inactive)"},
      {"measurement": "inhibition", "setting": "[14]", "result": "22% (inactive)"},
      {"measurement": "inhibition", "setting": "[15]", "result": "8% (inactive)"},
      {"measurement": "inhibition", "setting": "[16]", "result": "25% (inactive)"},
      {"measurement": "inhibition", "setting": "[17]", "result": "19% (inactive)"},
      {"measurement": "inhibition", "setting": "[18]", "result": "-1% (inactive)"},
      {"measurement": "inhibition", "setting": "[19]", "result": "-8% (inactive)"},
      {"measurement": "inhibition", "setting": "[20]", "result": "-8% (inactive)"},
      {"measurement": "inhibition", "setting": "[21]", "result": "-8% (inactive)"},
      {"measurement": "inhibition", "setting": "[22]", "result": "5% (inactive)"},
      {"measurement": "inhibition", "setting": "[23]", "result": "5% (inactive)"},
      {"measurement": "inhibition", "setting": "[24]", "result": "9% (inactive)"},
      {"measurement": "inhibition", "setting": "[25]", "result": "69% (inactive)"},
      {"measurement": "inhibition", "setting": "[26]", "result": "0% (inactive)"},
      {"measurement": "inhibition", "setting": "[27]", "result": "25% (inactive)"},
      {"measurement": "inhibition", "setting": "[28]", "result": "44% (inactive)"},
      {"measurement": "inhibition", "setting": "[29]", "result": "-2% (inactive)"},
      {"measurement": "inhibition", "setting": "[30]", "result": "7% (inactive)"},
      {"measurement": "inhibition", "setting": "[31]", "result": "3% (inactive)"},
      {"measurement": "inhibition", "setting": "[32]", "result": "-1% (inactive)"},
      {"measurement": "inhibition", "setting": "[33]", "result": 53, "unit": "%"}
    ]}
  ]
}
